Patent US20110071117A1, “COMBINATIONS OF ANTIOXIDANTS AND ANTI-INFLAMMATORY DRUGS IN THE TREATMENT OF INFLAMMATORY BOWEL DISEASE” (The Board of Regents of the University of Oklahoma, priority 2008, published 2011)

Tests used:
MPO activity = assay: Colonic inflammation by MPO assay in distal colon tissue, TNBS colitis; type: in vivo, Male Sprague Dawley rats; conditions: 11 days after TNBS, 8 days of treatment; mean±SEM; TNBS colitis 703+130
Excerpt: Fasted animals were lightly anesthetized with isoflurane and then subjected to enema administration of TNBS and subsequently study drugs. The experimental protocol is similar to that previously described (20). The tip of polyethylene catheter was advanced […] 8 cm to the distal colon and a single dose of TNBS (Sigma, St. […] Following the administration of TNBS the animals were maintained in a head-down position for approximately 60 seconds to prevent leakage of the infusate. Three days after TNBS dosing rats were randomly assigned to receive one of the following treatments by enema in a manner similar to that used for TNBS administration. The TNBS treated animals received one of the following therapies 5-ASA (100 mg/kg) alone or 5-ASA in combination with one of the following: vitamin C (100 mg/kg), phenyl butylnitrone (PBN; 30 mg/kg) and vitamin E (a tocopherol; 50 mg/kg solubilized in DMSO). The doses of selected antioxidants were derived from the literature in which these agents had been used in experimental models of disease or IBD (19, 22, 23). Comparator groups included TNBS dosed rats that received 8 doses of rectal saline and saline treated controls. Rats were treated for 8 days and then sacrificed. MPO activity was measured in colonic tissue samples by colorimetric assay. […] The absorbance changes were read at 450 nm and recorded. Results are expressed as nanograms per gram of tissue. […]

TNBS colitis [1] = assay: Macroscopic injury score of distal colon in TNBS colitis, rectal (enema) treatment; type: in vivo, Male Sprague Dawley rats; conditions: 11 days after TNBS, 8 days of daily rectal treatment, mean±SEM, scale of Table 1, TNBS alone 5.9±0.6
Excerpt: (§1) Male Sprague Dawley rats weighing 200-250 grams were housed in the animal facility in cages containing contact bedding. Rats were deprived of food but not water for 24 hrs prior to the induction of colitis. Institutional approval for experimental protocols was provided by the research and animal care committees of the Research Services at the Oklahoma City Veterans Administration Medical Center.
(§2) Fasted animals were lightly anesthetized with isoflurane and then subjected to enema administration of TNBS and subsequently study drugs. The experimental protocol is similar to that previously described (20). The tip of polyethylene catheter was advanced transanally 8 cm to the distal colon and a single dose of TNBS (Sigma, St. Louis, Mo.), was instilled intraluminally (15 mg of TNBS dissolved in a 0.6 ml volume of 50% ethanol) to induce colitis. Following the administration of TNBS the animals were maintained in a head-down position for approximately 60 seconds to prevent leakage of the infusate.
Three days after TNBS dosing rats were randomly assigned to receive one of the following treatments by enema in a manner similar to that used for TNBS administration. […]
Inflammation was present if the mucosa was erythematous. […] Once macroscopic damage was assessed full thickness colonic tissue samples were taken from inflamed areas and processed for histology.

[2] = tested on: cytokine gene expression (IL-1A, IL-1B, 1L-04, IL-6 and TNFα); conditions: similarly designed studies; cited from earlier work
TNBS colitis [3] = assay: Microscopic (histological) injury of distal colon in TNBS colitis, rectal (enema) treatment; type: in vivo, Male Sprague Dawley rats
Excerpt: as §1, §2
Three days after TNBS dosing rats were randomly assigned to receive one of the following treatments by enema in a manner similar to that used for TNBS administration. The TNBS treated animals received one of the following therapies 5-ASA (100 mg/kg) alone or 5-ASA in combination with one of the following: vitamin C (100 mg/kg), phenyl butylnitrone (PBN; 30 mg/kg) and vitamin E (a tocopherol; 50 mg/kg solubilized in DMSO). The doses of selected antioxidants were derived from the literature in which these agents had been used in experimental models of disease or IBD (19, 22, 23). Comparator groups included TNBS dosed rats that received 8 doses of rectal saline and saline treated controls. Rats were treated for 8 days and then sacrificed.
Histological assessment was used to measure colonic injury. Colonic tissue samples taken from the distal colon were immersed in 10% phosphate buffered formalin and subsequently embedded in paraffin. Sections of 3 micron thickness were stained with hematoxylin and eosin. The slides were then evaluated by a pathologist for epithelial damage, architectural changes, polymorphonuclear leukocyte (PMN) infiltration, mononuclear cell infiltration, and ulceration. The microscopic features of colitis were graded on a 0-3 scale with 0 being normal and 3 representing severe or most intense abnormality. In addition to scoring individual features of colitis, an aggregate score of colitis for each rat was tabulated by adding together individual parameter scores, thus, providing a global assessment of colitis.

[4] = distal colonic specimen, 8 days of topical treatment begun 3 days after TNBS

SMILES	MPO activity in the distal colon (MPO activity) [ng/gm]	macroscopic injury score (TNBS colitis [1])	cytokine gene expression elicited by TNBS [2]	global microscopic injury score (TNBS colitis [3]; distal colon, 11 days after TNBS, 8 days of daily rectal treatment, mean±SEM, sum of indices graded 0-3, TNBS alone 13.3±0.5)	inflammation in representative photomicrograph (TNBS colitis [3]; [4])	mucosal ulceration in representative photomicrograph (TNBS colitis [3]; [4])	reduction of global microscopic colitis vs TNBS (TNBS colitis [3]; printed as reduction/decrease) [%]
Nc1ccc(O)c(C(=O)O)c1 [5-ASA, 5-aminosalicylic acid]	354±81	3.8±0.4	did not achieve this degree of statistical distinction	9.1±1.0	mild inflammation in the submucosa	an area of mucosal ulceration	31
CC(=O)N[C@@H](CS)C(=O)O [NAC, N-acetylcysteine]	–	–	did not achieve this degree of statistical distinction	–	–	–	–
